Data taken from patent publication US20170121683A1, “ARYL HYDROCARBON RECEPTOR DISRUPTION AND ENHANCEMENT” (priority 2015, published 2017).

Tests used:
[1] = test system: H9 hESCs; assay: NK cell differentiation from hESCs, flow cytometry (Example 1); type: cell-based, human; conditions: 1 μM SR-1 or 10 nM TCDD in NK cell differentiation conditions, n=2
Procedure: H9 hESCs were differentiated as spin EB exposed to Stage I mesodermal induction media for 11 days and transferred to NK-cell differentiation media with either DMSO, 1 μM SR-1, or 10 nM TCDD treatment for an additional 14 and 21 days. At the indicated time points, non-adherent cells were harvested and analyzed for NK-cell immunophenotype (CD56^+CD45^+) by flow cytometry. Representative flow cytometry plots are shown from two biologically independent experiments.
H9 hESCs were differentiated into NK cells as previously described (Ni et al. Embryonic Stem Cell Immunobiol. Methods Protoc. Methods Mol. Biol. 1029, 33-41 (2013)). In brief, H9 hESCs were aggregated as spin-EBs and differentiated in Stage I mesodermal induction media for 11 days, with one-half media change with fresh cytokines on Day 6. […]
Harvested cells were incubated with PE-Cy7 CD34 (BD Biosciences, San Jose, Calif.) in conjunction with APC CD31, APC CD41a, APC CD43, or APC CD45 for 30 minutes at 4° C. in FACS buffer (DPBS containing 2% fetal bovine serum and 0.1% sodium azide). […] Cells were analyzed using an LSRII flow cytometer (BD Biosciences) and data were analyzed using FlowJo software (TreeStart, Ashland, Oreg.).

[2] = test system: H9 hESC-derived non-adherent hematopoietic progenitor cells; assay: Hematopoietic colony forming unit (CFU) assay (Example 1); type: cell-based, human
Procedure: FIG. 5A. H9 hESCs were differentiated as spin EB exposed to Stage I mesodermal induction media for 6 days and transferred to hemato-endothelial induction media with either DMSO, 1 μM SR-1, or 10 nM TCDD treatment for an additional 6 days. On day 12 of total differentiation, 50,000 non-adherent cells were obtained in each treatment group and seeded in Methocult H4436. Following 14 days of growth, colony-forming units (CFUs) were quantified and scored based on morphology. Data are represented as number of CFUs per 5×10^4 cells. FIG. 5B. Distribution of CFU morphology for DMSO-, SR-1-, and TCDD-treated H9 hESCs. *p<0.05 as compared to DMSO-treated H9 hESC (Student's t-test) and represent an average of three biological replicates with error bars representing SEM. CFU-GEMM: Colony-Forming Unit Granulocyte/Erythrocyte/Macrophage/Megakaryocyte; CFU-M: Colony-Forming Unit Macrophage; CFU-GM: Colony-Forming Unit-Granulocyte/Macrophage; CFU-E: Colony-Forming Unit Erythroid; BFU-E: Burst-Forming Unit-Erythroid.
Non-adherent, differentiated hematopoietic progenitor cells were harvested following 6 days growth as spin-EBs in Stage I conditions, followed by an additional 6 days growth in Stage II conditions. […] Plates were incubated in a 37° C. in a humidified atmosphere containing 5% CO2 for 14 days and were subsequently scored.

[3] = test system: non-human primate iPSCs; conditions: Gori et al. Blood 2012; cited from earlier work

| Structure (SMILES) | CD56+CD45+ NK cells [1] [%] | increase in total number of colonies relative to DMSO-treated control cells ([2]; non-adherent cells harvested at Day 12, 1 μM SR-1) [fold] | proportion of CFU-M and CFU-GM ([2]; non-adherent cells harvested at Day 12, 1 μM SR-1, relative to DMSO) | kinetics or quantity of CD34+ or CD34+CD31+ cells [3] | phenotypic CD34+CD45+ cells [3] | total number of colony-forming units (CFUs) [3] |
| --- | --- | --- | --- | --- | --- | --- |
| CC(C)n1cnc2c(NCCc3ccc(O)cc3)nc(-c3csc4ccccc34)nc21 [SR-1, StemReginin-1] | 26.4 | 4 | increased proportion | no differences | increase | did not enhance |
| Clc1cc2c(cc1Cl)Oc1cc(Cl)c(Cl)cc1O2 [TCDD, 2,3,7,8-tetrachlorodibenzo-p-dioxin] | 6.7 | – | – | – | – | – |
